This is an account of results in US10807951B2, “mTORC1 modulators” (THE REGENTS OF THE UNIVERSITY OF CALIFORNIA, priority 2017, dated 2020).

Experiment [1] deals with T1, Lamtor (a.k.a. Ragulator) and Rag GTPase protein complexes (Homo sapiens, UniProt O43504).
T1 construct: RFP (on the Ragulator complex); GST (large-scale screen); on the Ragulator complex; made in house; host or cells: HEK293T (small-scale screen), HEK293F (large-scale screen), transient transfection
As to the kind of experiment: Visual-IP of Rag GTPase binding to bead-bound Lamtor (Ragulator). The following applies: for disruption of Rag GTPase-Lamtor interaction (Visual IP): in vitro, GFP-RagB on RFP-Ragulator beads, 50 μM compound in small-scale screens. The text has this:
To assay for mTORC1-inhibiting compounds, we in vitro-reconstituted the interaction between the Lamtor (a.k.a. Ragulator) and Rag GTPase protein complexes, which are essential for amino acid-driven mTORC1 recruitment (and thus activation) to the lysosome (24, 30, 36, 37). We sequentially coated agarose beads with RFP-tagged Ragulator and with GFP-tagged Rag GTPases, resulting in Rag binding to the beads via their interaction with Lamtor. This method, which we call ‘Visual co-immunoprecipitation’ (Visual-IP) is essentially a binding reaction at equilibrium, in which the interaction between the two binding partners can be easily scored as color overlap between the bead-bound, red-tagged Lamtor and the soluble, green-fluorescent Rag GTPases. Interaction between the two proteins results in red-green color overlap (‘yellow beads’), whereas when the interaction is disrupted, partial or complete dispersion of the green signal in the surrounding buffer is observed (‘red beads’) (FIG. 1A and FIG. 1B). This assay could easily be scaled up and implemented in 384-well plates, which were imaged with the aid of an automated fluorescence microscope (FIG. 1C).
HEK293T cells were plated on 15 cm plates at 10 million cells per plate. 24 hours later, the cells were transfected using 500 μL OptiMEM transfection media, 60 μL polyethyleneimine (PEI, Sigma) and 10 μg total DNA. The transfection mix was incubated for 15 minutes and then added directly to the cell media. 48 hours later, the media was removed, and the cells were washed three times with PBS. The cells were scraped from the plate and collected in 10 mL PBS. The samples were centrifuged for 5 minutes at 1500 g at 4° C. The cell pellets were then resuspended in 1 mL Triton lysis buffer (1% Triton X-100, 130 mM NaCl, 2 mM EGTA, 2.5 mM MgCl2, 25 mM HEPES, pH 7.4, 10% glycerol, protease inhibitor (Pierce)), and allowed to rotate at 4° C. for 20 minutes. The samples were then centrifuged at 13000 g for 2 minutes, and the supernatant was separated for immunoprecipitation. 50 μL of washed anti-FLAG affinity beads (Sigma) were added to the supernatant and the sample was rotated at 4° C. for 2 hours. After immunoprecipitation, the samples were washed twice in Triton lysis buffer, once in high salt (500 mM NaCl) lyso sucrose buffer, and once in normal salt lyso sucrose buffer (250 mM sucrose, 10 mM KCl, 2 mM EGTA, 2.5 mM MgCl2, 25 mM HEPES, pH 7.4, 10% glycerol, protease inhibitor (Pierce)). Each wash consisted of rotating with the wash buffer for 5 minutes at 4° C. and subsequent centrifugation at 2000 g for 1 minute. For elution off FLAG beads, 3×-FLAG peptide in Phosphate Buffered Saline (PBS) was added to the sample, [RL2] and the sample was allowed to rotate overnight at 4° C. […]

The test system of the next experiment is Hela whole cell proteome. As to the kind of experiment: Gel-based ABPP of IA-alkyne cysteine reactivity in Hela whole cell proteome. The text has this:
(§1) Thus, we performed medicinal chemistry to optimize the potency and selectivity of our initial hits by addition of further bulk to the core YP 1-44 scaffold (FIGS. 9A-9C; FIG. 5B). We initially screened these compounds against both LAMTOR5 and the Ragulator complex using gel-based ABPP methods competing the binding of these YP 1-44 analogs against IA-alkyne labeling of these proteins (FIG. 5C, FIG. 9). We also tested these compounds against Hela cell whole proteome cysteine reactivity to get initial read-outs of proteome-wide selectivity (FIGS. 9A-9C, FIG. 5D).

A further experiment has as its system autophagy. As to the kind of experiment: Autophagy induction in tissues of injected mice. In kind it is in vivo. The following applies: 100 mg/kg vs rapamycin 10 mg/kg, heart, skeletal muscle, kidney.
Experiment [2] concerns the target T2, LAMTOR5 (Homo sapiens, UniProt O43504). The experiment is described as follows: Gel-based ABPP against IA-alkyne labeling of pure LAMTOR5 protein. In kind it is binding.
Source text: FIGS. 9A-9C. Potency and selectivity of YP 1-44 analogs. (FIG. 9A) initial YP 1-44 analogs and their relative potency against IA-alkyne labeling of pure human LAMTOR5 protein visualized by gel-based ABPP (a). Protein expression levels were also ascertained by silver staining (b). (FIG. 9B) Gel-based ABPP IA-alkyne cysteine-reactivity analysis of YP 1-44 analogs against Rag-Ragulator complex proteins (a). Protein expression levels were also ascertained by silver staining (b). (FIG. 9C) Hela whole cell proteome gel-based ABPP analysis of IA-alkyne cysteine-reactivity with YP 1-44 analogs (a). Protein expression levels were also ascertained by silver staining (b).
as §1

Experiment [3] addresses T2, LAMTOR5. The experiment is described as follows: Rhodamine labeling with alkyne probe on purified Lamtor-Rag complexes. The settings on record: excess unlabeled compound. In kind it is binding. The source says:
FIGS. 8A-8B. (FIG. 8A) Structures of CC 2-11 and CC 1-44. CC 2-11 bears an alkyne group on a separate ring from the cysteine-reactive warhead. The presence of the alkyne group enables us to directly label the modified target protein (e.g. Lamtor5) with biotin or rhodamine groups, either in gels or in complex proteomes. […] Thus, CC 2-11 allows precise mapping of the target cysteines as well as accurate identification of the off-targets.
We also synthesized a CC 1-44 derivative, named CC 2-11, which bears an alkyne group on a separate ring from the cysteine-reactive warhead (FIG. 8A). The presence of the alkyne group enables us to directly label the modified target protein (e.g. Lamtor5) with biotin or rhodamine groups, either in gels or in complex proteomes. […] Thus, CC 2-11 will allow precise mapping of the target cysteines as well as accurate identification of the off-targets.

“Also recorded” adds a separate entry of the source.

Consider `C=CC(=O)n1ccc2ccccc21` [YP 1-44], for which the “displacement of Rag and Lamtor interactions” value in experiment [1] (10 μM, dose-responsive) is approximately 50%. Also, the “disruption of Rag GTPase-Lamtor interaction (Visual IP)” value in experiment [1] is “causes RagB dissociation from Lamtor; also recorded: disrupted the interaction”; in experiment [1] (listed as YP1-44), “dispersion of the GFP-RagB signal”. Also, the “proteome-wide selectivity (displacement of IA-alkyne cysteine reactivity)” value in the experiment on Hela whole cell proteome was “non-selectivity at 100 μM and above; also recorded: not sufficiently selective at higher concentrations (>100 μM)”.

For `C=CC(=O)N1CCc2c(OCc3cc(C(F)(F)F)cc(C(F)(F)F)c3)cccc21` [CC 1-44], the “disruption of Rag GTPase-Lamtor interaction (Visual IP)” value in experiment [1] is listed as “does not; also recorded: did not break the LAMTOR-Rag interaction in vitro”. For the same compound, the “autophagy induction compared to rapamycin” value was “superior potency to rapamycin” with autophagy and “much stronger autophagy induction as compared to rapamycin” in the experiment on autophagy (listed as C 1-44). At LAMTOR5 [2], the “potency against IA-alkyne labeling of LAMTOR5” value is “desirable potency”. For the same compound, at LAMTOR5 [3], the “competition of CC 2-11 rhodamine labeling signal” value is “competes”. Further, the “proteome-wide selectivity (displacement of IA-alkyne cysteine reactivity)” value in the experiment with Hela whole cell proteome was “selectivity at up to 1 mM; also recorded: apparent selectivity up to 1 mM”.
